From patent US20140057311A1, “Device For High Throughput Investigations Of Multi-Cellular Interactions” (priority 2010, published 2014)

Tested on: MDA-MB 231 human breast carcinoma cells
Experiment: Tumor cell migration direction under interstitial flow in 3D collagen I gel
Type: cell-based
Details: Src kinase inhibited with PP2
Text: Cell culture system design and verification of interstitial flow field. A microfluidic cell culture system to culture breast cancer cells (MDA-MB 231) in a 3D collagen I matrix and to subject these cells to a controlled level of interstitial flow was employed. The system consists of two channels separated by a region containing single cells suspended in collagen I gel (FIG. 16A). By applying a hydrostatic pressure gradient across the gel region, a consistent flow field is generated. FEM software was used to solve Brinkman's equation for flow through porous medium for our system geometry (FIG. 16B). […] From the bead tracking data, the hydraulic permeability of 2 mg/ml collagen I gel was determined to be 1.55×10-13 m2, similar to previously published values.
Interstitial flow induced a directional bias in cellular migration. […] To quantify the migration direction of cell populations, two metrics are presented. […] To determine directional bias of migration along streamlines, a “directional migration metric” was computed that scored cells with a +1 if they migrated in the direction of flow and a −1 if they migrated against the flow (FIG. 17E). […]
Cells were incubated overnight at 37° C. […] Devices were allowed to reach thermal equilibrium at 37° C. before imaging (see Supplementary Methods in SI Appendix for details on imaging and data quantification). […]

CC(C)(C)n1nc(-c2ccc(Cl)cc2)c2c(N)ncnc21 [PP2]
direction of cell migration under interstitial flow: cells migrated randomly, with no biased migration upstream or downstream
